Measured values published in paper PMC9035832, “Synthesis and Evaluation of a Non-Peptide Small-Molecule Drug Conjugate Targeting Integrin αVβ3” (Frontiers in Chemistry, 2022).
Numbered stars: 1 amine (or outer) side, 2 acyl side, 3 side chain; on linkers, the order of the positions; unused ones are H or OH. Bridge positions count the residues as written; N and C are the ends. Square brackets hold non-standard residues; d marks the D form. Peptide text beside a SMILES is read from it. I, II: the chains in the order shown. * marks the point of attachment. Dolaproine = CO[C@@H]([C@@H]1CCCN1)[C@@H](C)C(=O)O; Dil = CC[C@H](C)[C@H](NC)[C@@H](CC(=O)O)OC; X1 = O=C(CCCc1cn(CCOCCOCCN[*:1])nn1)[*:2]; PABC = O=C(OCc1ccc(N[*:1])cc1)[*:2]; X2 = C[C@@H](N*)[C@@H](O)c1ccccc1; Suc = O=C(CCC(=O)[*:2])[*:1]; NMeV = CN[C@H](C(=O)O)C(C)C

What was measured:
WM115 cells [1] = assay: Cell adhesion assay on vitronectin, αVβ3-positive cells; type: cell-based; conditions: adhesion of WM115 cells to vitronectin
Experimental: WM115 cells were cultivated and used in the MEM Eagle medium (Pan Biotech P04-08500 with 10% fetal bovine serum, 50 μg/ml gentamycin, and 0.5 mM sodium pyruvate) and M21-L cells in the RPMI medium (Pan Biotech P04-16500 with 10% fetal bovine serum, 1% Pen-Strep). A flat-bottom MaxiSorp Nunc 96-well plate was coated with recombinant human vitronectin (100 µl/well, 1 μg/ml, Peprotech) in the PBS buffer (137 mM NaCl, 2.7 mM KCl, 10 mM Na2HPO4, 2 mM KH2PO4, pH 7.4) at 4°C and blocked at the following day by adding a solution of fatty acid free milk powder in PBS buffer (5 w/v %, 100 µl/well) at 4°C. The WM115 and M21-L cells were washed with the PBS buffer, detached with Accutase solution (5 ml, Pan Biotech P10-21100) at 37°C for 5 min, and then diluted with the medium (15 ml). After centrifugation (850 rpm, 6 min), the resulting cell pellet was resuspended with fluorescein diacetate in the medium (fluorescein diacetate 1.5 mg/ml, cell density 5·× 10^5 cells/ml) and incubated for 30 min at 37°C in the dark. The cells were washed twice with the medium and then resuspended in the medium (cell density 5 × 10^5 cells/ml). Afterward, a solution of CaCl2, MnCl2, and MgCl2 (each 100 mM) in the PBS buffer (90 µl) was transferred to the cells and incubated for 30 min on ice in the dark. In the meantime, a dilution series of the compounds in the medium (1:3 dilution) was prepared, and 240 µl were transferred to Eppendorf tubes. Pure medium was used as a positive control. Cell suspension (240 µl) was added to each tube of the dilution series and the control, followed by incubation at 37°C for 30 min in the dark. The assay plate was discharged and washed with 200 µl/well medium. […] Afterward, the assay plate was washed with the medium (3 × 100 µl/well), and finally, the medium (100 µl/well) was added and the fluorescence was measured with a TecanReader (Excitation: 480 nm; Emission: 520 nm). The determined values were plotted and analyzed using OriginPro® 2020b where the inflection point of a DoseResp fit described the IC50 value. […]

WM115 cells [2] = assay: Cell viability assay (resazurin based); conditions: for fold less cytotoxic than MMAE: relative to free MMAE; for IC50: 3 days incubation, resazurin, read-out: Cytotoxicity IC50
Experimental: (§1) WM115 cells were cultivated in the MEM medium (with 10% fetal bovine serum, 50 μg/ml gentamycin, and 0.5 mM sodium pyruvate) at 37°C and 5.3% CO2-humidified air in an incubator. The cells were seeded in a sterile flat-bottom cell culture 96-well plate (Sarstedt) in a density of 10,000 cells/well (100 µl/well) and incubated for 1 day as described. A serial dilution (1:3 dilution) of the compounds and the standard (cryptophycin-52) in the medium was prepared and transferred to the assay plate (100 µl/well), followed by incubation for 3 days as described. Afterward, a solution of resazurin (175 μM, 30 µl/well) was added, followed by incubation for 6 h. Subsequently, the fluorescence was measured with a TecanReader (Excitation: 530 nm; Emission: 588 nm) and plotted and analyzed using OriginPro® 2020b where the inflection point of a DoseResp fit described the IC50 value. […]
(§2) WM115 cells were cultivated in MEM medium (with 10 % foetal bovine serum, 50 µg/mL gentamycin, 0.5 mM sodium pyruvate) at 37 °C and 5.3 % CO2-humidified air in an incubator. The cells were seeded in a sterile flat-bottom cell culture 96-well plate (Sarstedt) in a density of 10000 cells/well (100 µL/well) and incubated for 1 day as described. A dilution series (1:3 dilution) of the compounds and the standard (cryptophycin-52) in medium was prepared and transferred to the assay plate (100 µL/well) followed by incubation for 3 d as described. Afterwards a solution of resazurin (175 µM, 30 µL/well) was added followed by incubation for 6 h. Subsequently, the fluorescence was measured with a TecanReader (Excitation: 530 nm; Emission: 588 nm) as well as plotted and analysed using OriginPro® 2020b where the inflection point of a DoseResp fit describes the IC50 value.

[3] = Cell viability assay (resazurin based); conditions: WM115 cells, 3 days incubation, resazurin; read-out: Cytotoxicity IC50
Experimental: as §1, §2

M21-L cells = assay: Cell adhesion assay on vitronectin, αVβ3-negative cells; type: cell-based; conditions: for IC50: adhesion of M21-L cells to vitronectin, read-out: M21-L (αV−, αVβ3−) IC50, cell adhesion
Experimental: WM115 cells were cultivated and used in the MEM Eagle medium (Pan Biotech P04-08500 with 10% fetal bovine serum, 50 μg/ml gentamycin, and 0.5 mM sodium pyruvate) and M21-L cells in the RPMI medium (Pan Biotech P04-16500 with 10% fetal bovine serum, 1% Pen-Strep). A flat-bottom MaxiSorp Nunc 96-well plate was coated with recombinant human vitronectin (100 µl/well, 1 μg/ml, Peprotech) in the PBS buffer (137 mM NaCl, 2.7 mM KCl, 10 mM Na2HPO4, 2 mM KH2PO4, pH 7.4) at 4°C and blocked at the following day by adding a solution of fatty acid free milk powder in PBS buffer (5 w/v %, 100 µl/well) at 4°C. The WM115 and M21-L cells were washed with the PBS buffer, detached with Accutase solution (5 ml, Pan Biotech P10-21100) at 37°C for 5 min, and then diluted with the medium (15 ml). After centrifugation (850 rpm, 6 min), the resulting cell pellet was resuspended with fluorescein diacetate in the medium (fluorescein diacetate 1.5 mg/ml, cell density 5·× 10^5 cells/ml) and incubated for 30 min at 37°C in the dark. The cells were washed twice with the medium and then resuspended in the medium (cell density 5 × 10^5 cells/ml). Afterward, a solution of CaCl2, MnCl2, and MgCl2 (each 100 mM) in the PBS buffer (90 µl) was transferred to the cells and incubated for 30 min on ice in the dark. In the meantime, a dilution series of the compounds in the medium (1:3 dilution) was prepared, and 240 µl were transferred to Eppendorf tubes. Pure medium was used as a positive control. Cell suspension (240 µl) was added to each tube of the dilution series and the control, followed by incubation at 37°C for 30 min in the dark. The assay plate was discharged and washed with 200 µl/well medium. Then the cell suspension with different compound concentrations was added to the assay plate (100 µl/well) and incubated for 60 min at 37°C in the dark. Afterward, the assay plate was washed with the medium (3 × 100 µl/well), and finally, the medium (100 µl/well) was added and the fluorescence was measured with a TecanReader (Excitation: 480 nm; Emission: 520 nm). The determined values were plotted and analyzed using OriginPro® 2020b where the inflection point of a DoseResp fit described the IC50 value.
WM115 cells were cultivated and used in MEM Eagle medium (Pan Biotech P04-08500 with 10 % foetal bovine serum, 50 µg/mL gentamycin, 0.5 mM sodium pyruvate) and M21-L cells in RPMI medium (Pan Biotech P04-16500 with 10 % foetal bovine serum, 1 % Pen-Strep). Overnight a flat-bottom MaxiSorp Nunc 96-well plate was coated with recombinant human vitronectin (100 µL/well, 1 µg/mL, Peprotech) in PBS buffer (137 mM NaCl, 2.7 mM KCl, 10 mM Na2HPO4,2 mM KH2PO4, pH 7.4) at 4 °C and blocked at the following day by adding a solution of fatty acid free milk powder in PBS buffer (5 w/v %, 100 µL/well) at 4 °C. […]

In the case of `CC[C@H](C)[C@@H]([C@@H](CC(=O)N1CCC[C@H]1[C@H](OC)[C@@H](C)C(=O)N[C@H](C)[C@@H](O)c1ccccc1)OC)N(C)C(=O)[C@@H](NC(=O)[C@H](C(C)C)N(C)C(=O)OCc1ccc(NC(=O)[C@H](C)NC(=O)[C@@H](NC(=O)[C@H](CCC(=O)O)NC(=O)CCCc2cn(CCOCCOCCOc3ccc(C(=O)N[C@@H](Cc4ccc(OCCCCCNC5=NCCN5)cc4)C(=O)O)cc3)nn2)C(C)C)cc1)C(C)C` [compound 18], the IC50 (WM115 cells [1]) is reported as 8050 ± 510 nM, the “TI (RAD/RGD), targeting index” value (WM115 cells [2]; TI = [IC50 (17)]/[IC50 (compound)]) is reported as 2.8 and the “fold less cytotoxic than MMAE” value (WM115 cells [2]) is reported as “about 50 fold”. For the same compound, the IC50 [3] was 95 ± 25 nM, the “effect on cell adhesion of αVβ3-negative cells” value (M21-L cells; M21-L cell line, adhesion to vitronectin) was “no effect” and the IC50 (M21-L cells) was over 100000 nM.
In the case of `CC[C@H](C)[C@@H]([C@@H](CC(=O)N1CCC[C@H]1[C@H](OC)[C@@H](C)C(=O)N[C@H](C)[C@@H](O)c1ccccc1)OC)N(C)C(=O)[C@@H](NC(=O)[C@H](C(C)C)N(C)C(=O)OCc1ccc(NC(=O)[C@H](C)NC(=O)[C@@H](NC(=O)[C@H](CCC(=O)O)NC(=O)CCCc2cn(CCOCCOCCNC(=O)CCC(=O)NCCCC[C@@H]3NC(=O)[C@@H](Cc4ccccc4)NC(=O)[C@H](CC(=O)O)NC(=O)[C@H](C)NC(=O)[C@H](CCCNC(=N)N)NC3=O)nn2)C(C)C)cc1)C(C)C` [compound 17] (I: [X1]EVA[PABC][NMeV]V[Dil][Dolaproine]-X2 / II: cyclo(AD[dF]KR); linker I:N-II:4 via Suc), the IC50 (WM115 cells [1]) is reported as 79100 ± 1690 nM, the IC50 (WM115 cells [2]) is reported as 264 ± 24.6 nM and the “fold less cytotoxic than MMAE” value (WM115 cells [2]) is reported as 150 fold. The IC50 (M21-L cells) was over 100000 nM.
In the case of `CC[C@H](C)[C@@H]([C@@H](CC(=O)N1CCC[C@H]1[C@H](OC)[C@@H](C)C(=O)N[C@H](C)[C@@H](O)c1ccccc1)OC)N(C)C(=O)[C@@H](NC(=O)[C@H](C(C)C)N(C)C(=O)OCc1ccc(NC(=O)[C@H](C)NC(=O)[C@@H](NC(=O)[C@H](CCC(=O)O)NC(=O)CCCc2cn(CCOCCOCCNC(=O)CCC(=O)NCCCC[C@@H]3NC(=O)[C@@H](Cc4ccccc4)NC(=O)[C@H](CC(=O)O)NC(=O)CNC(=O)[C@H](CCCNC(=N)N)NC3=O)nn2)C(C)C)cc1)C(C)C` [compound 16], the IC50 (WM115 cells [1]) is reported as 2650 ± 350 nM, the IC50 (WM115 cells [2]) is reported as 91.4 ± 12.3 nM and the “fold less cytotoxic than MMAE” value (WM115 cells [2]) is reported as “about 50 fold”. It also gave an IC50 (M21-L cells) of over 100000 nM.
